Eleven compounds from patent publication EP3820512B1, “IMMUNOMODULATING COMPOSITIONS COMPRISING OLIGOSACCHARIDE DERIVATIVES” (priority 2018, dated 2020) can be followed below.

Structures are written as SMILES.

Series [1] deals with THP-1 (human monocytic) cells. As to the kind of experiment: Cytokine response (IL-1β, TNF-α, IL-10) of THP-1 cells treated with compounds. To be noted: 100-200 µM. In kind it is cell-based. The method, then:
When THP-1 (human monocytic) cells were treated with 100-200 µM of compounds 8, 14, 17, 23, 29, and 32, they produced an increased IL-1β and TNF-α response, decreased anti-inflammatory cytokine IL-10 (FIG. 4).

The subject of another series is hPBMC. As to the kind of experiment: Cytotoxicity in hPBMC, MTT cell proliferation kit. In kind it is cell-based, human. To be noted: 0.1, 1.0, 10, 100 and 1000 µM, 24h. As for the experimental part:
The cells were treated with compounds and incubated for 24h. Cell viability was assessed using MTT cell proliferation kit (Promega).
(Tetrazolium dyes change colour on reduction, which living cells bring about.)

The test system of the next series is HUVECs. As to the kind of experiment: Cytotoxicity in HUVECs, MTT cell proliferation kit. To be noted: 100 µM, 24h. In kind it is cell-based, human. The method, then: Selected TLR2/4 antagonist compounds 2, 6, 7, 8, 14, 17 and 32 were evaluated for cytotoxicity in HUVECs at 100 µM concentration. The cells were treated with compounds and incubated for 24h. Cell viability was assessed using MTT cell proliferation kit (Promega). All the compounds were not toxic to HUVECs (FIG. 15).

Series [2] relates to VEGF induced tube formation in HUVECs. As to the kind of experiment: Anti-angiogenic activity, Tube Formation kit, VEGF induced. In kind it is cell-based, human. Conditions: VEGF 100ng/mL. As for the experimental part:
Selected TLR2/4 antagonist compounds 2, 6, 7, 8, 14, 17 and 32 were evaluated for anti-angiogenic activity using the Tube Formation kit (Cat#3470-096-K). VEGF (100ng/mL) was used as positive control. These compounds have potential applications in diseases associated with pathological angiogenesis such as solid tumor, […], diabetic retinopathy as well as AMD.

The target of another series is TLR4 (Homo sapiens, UniProt O00206). As to the kind of experiment: TLR4 inhibitory and activating activity in THP-1 cells at low and high concentrations. On the set-up: endogenous in cells; host or cells: THP-1 (human monocytic) cells. In kind it is cell-based. To be noted: for % inhibition over control TLR4 / % activation over control TLR4: THP-1 cells; for TLR2/4 antagonist activity: as shown in Table-1 (FIG. 1), TLR2 and TLR4.
TLR4, sequence (O00206 24-839): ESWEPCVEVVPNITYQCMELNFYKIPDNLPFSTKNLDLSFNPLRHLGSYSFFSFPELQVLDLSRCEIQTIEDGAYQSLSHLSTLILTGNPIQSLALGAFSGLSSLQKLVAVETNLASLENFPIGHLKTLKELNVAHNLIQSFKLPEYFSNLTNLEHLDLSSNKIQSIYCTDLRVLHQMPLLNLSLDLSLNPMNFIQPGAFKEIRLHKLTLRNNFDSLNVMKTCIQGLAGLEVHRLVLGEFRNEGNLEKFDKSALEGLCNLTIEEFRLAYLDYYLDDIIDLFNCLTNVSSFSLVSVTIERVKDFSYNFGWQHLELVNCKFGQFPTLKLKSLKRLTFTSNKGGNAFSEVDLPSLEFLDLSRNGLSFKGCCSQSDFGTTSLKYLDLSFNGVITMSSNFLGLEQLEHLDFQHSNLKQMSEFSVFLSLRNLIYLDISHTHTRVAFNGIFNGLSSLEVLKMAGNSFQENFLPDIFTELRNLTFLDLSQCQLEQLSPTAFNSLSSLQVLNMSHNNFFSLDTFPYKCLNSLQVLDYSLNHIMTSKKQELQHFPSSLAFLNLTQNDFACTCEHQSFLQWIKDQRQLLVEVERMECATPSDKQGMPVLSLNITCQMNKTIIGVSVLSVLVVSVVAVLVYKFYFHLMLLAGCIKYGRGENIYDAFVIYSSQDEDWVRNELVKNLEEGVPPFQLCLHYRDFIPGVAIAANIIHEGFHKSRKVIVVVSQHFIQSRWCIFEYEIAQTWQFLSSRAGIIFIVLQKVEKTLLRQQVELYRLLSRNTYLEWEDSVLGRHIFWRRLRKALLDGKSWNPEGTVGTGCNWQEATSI
TLR4, sequence (Q9Y6Y9 17-160 partner limits assumed): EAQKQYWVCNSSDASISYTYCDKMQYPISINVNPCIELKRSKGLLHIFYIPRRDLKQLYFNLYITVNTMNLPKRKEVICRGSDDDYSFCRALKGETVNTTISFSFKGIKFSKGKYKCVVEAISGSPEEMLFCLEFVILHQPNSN

Another series addresses T1, TLR2 (Homo sapiens, UniProt O60603).
T1 construct: endogenous in cells; host or cells: THP-1 monocyte cells stimulated with PMA
In words: TLR2 activity in PMA-stimulated THP-1 monocyte cells, ELISA of cell lysate. To be noted: THP-1 cells. In kind it is cell-based. The method, then: THP-1 monocyte cells (1×10^5) were stimulated with 200nM of PMA for 48h and treated with different concentrations of test compounds. The TLR2 activity was measured after 24 h from the cell lysate using ELISA.
In general terms: An ELISA detects its analyte on a solid surface through an enzyme-linked reagent.

Series [3] concerns hyperoxia induced BPD in mouse pups. As to the kind of experiment: Hyperoxia-exposed BPD mouse model (newborn pups). In kind it is in vivo. An excerpt: Neonatal mice and humans undergo similar stages of lung development but differ with respect to the duration of each stage and its temporal relationship to gestational age. The lungs of the mouse born at term are in the saccular stage and are surfactant sufficient; this can be considered somewhat akin to a human preterm neonate in the same stage of lung development that has been exposed to a full complement of antenatal steroids (which is known to enhance surfactant production). In terms of mimicking the human condition, the most successful hyperoxia models are those that limit exposure to hyperoxia to the saccular stage of pulmonary development. The mouse BPD model involves exposing newborn mice (postnatal day 1 or PN1) to 100% oxygen till PN4 followed by recovery in room air (RA) for another 10 days.
After the recovery period, their lungs were harvested and processed for quantitative PCR, western blotting, histopathology and ELISA.
After the recovery period, their lungs were harvested and processed for quantitative PCR, western blotting and histopathology and ELISA.
BPD is characterized by large simplified alveoli, inflammation, increased cell death, decreased cell proliferation, dysmorphic capillary configuration, and variable interstitial cellularity and/or fibroproliferation. […] This is determined by measuring the alveolar chord length, septal thickness and radial alveolar count (RAC). In BPD, the alveolar area increases which is characterized by increase in the diameter of the alveolar sacs, the septa become thickened (thus interfering in gaseous exchange) and the RAC, a parameter used to assess the complexity of terminal respiratory unit by pulmonologists, decreases as a result of arrested lung development.

T1 sequence (O60603 21-784): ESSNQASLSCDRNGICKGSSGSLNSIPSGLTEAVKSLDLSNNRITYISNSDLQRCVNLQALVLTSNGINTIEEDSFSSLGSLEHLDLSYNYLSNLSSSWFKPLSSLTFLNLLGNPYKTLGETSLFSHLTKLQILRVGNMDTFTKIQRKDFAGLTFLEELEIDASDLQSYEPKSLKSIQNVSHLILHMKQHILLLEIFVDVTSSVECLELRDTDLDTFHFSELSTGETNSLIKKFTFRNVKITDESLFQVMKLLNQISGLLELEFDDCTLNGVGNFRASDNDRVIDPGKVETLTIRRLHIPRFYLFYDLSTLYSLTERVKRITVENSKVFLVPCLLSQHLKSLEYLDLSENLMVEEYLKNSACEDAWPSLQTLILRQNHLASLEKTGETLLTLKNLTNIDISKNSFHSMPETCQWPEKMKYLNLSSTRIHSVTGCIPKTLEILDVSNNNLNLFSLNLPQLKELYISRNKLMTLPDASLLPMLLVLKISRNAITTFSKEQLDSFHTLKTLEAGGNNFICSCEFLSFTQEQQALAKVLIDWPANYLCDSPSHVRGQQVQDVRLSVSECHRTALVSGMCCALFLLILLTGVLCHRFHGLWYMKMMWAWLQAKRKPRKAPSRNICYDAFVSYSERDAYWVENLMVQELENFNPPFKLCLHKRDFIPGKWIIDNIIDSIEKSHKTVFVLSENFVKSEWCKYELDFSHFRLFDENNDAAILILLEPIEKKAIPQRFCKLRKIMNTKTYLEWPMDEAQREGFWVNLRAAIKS

With `CC(=O)N[C@H]1[C@H](Oc2ccc(C#N)cc2)O[C@H](CO)[C@@H](O)[C@@H]1O` [Compound 14, p-Cyanophenyl 2-acetamido-2-deoxy-β-D-glucopyranoside], in series [1], the IL-1β response result is recorded as “increased”, the TNF-α response entry was “increased” and the “anti-inflammatory cytokine IL-10” value is “decreased”. Also, the “cytotoxicity in hPBMC (cell viability)” value in the series with hPBMC was “not toxic”. The “cytotoxicity in HUVECs (cell viability)” value in the series on HUVECs is on record as “not toxic”. Also, the “VEGF induced tube formation” value in series [2] is recorded as “significantly decreased”. Besides, the “% inhibition over control TLR4” value at TLR4 (Concentration 1 µM) is recorded as “+++ (+++ means that the % of inhibition or activation is in the range of 75-95%)”. In addition, the “% inhibition over control TLR4” value on TLR4 (Concentration 100 µM) was “+++ (+++ means that the % of inhibition or activation is in the range of 75-95%)”. The TLR2/4 antagonist activity entry at TLR4 (summary in words) is on record as “potent TLR2/4 antagonists”.
For `CC(=O)NC1[C@H](Oc2ccc(B(O)O)cc2)O[C@H](CO)[C@@H](O)[C@@H]1O` (single isomer, unassigned) [Compound 35, p-Boronic acid phenyl 2-acetamido-2-deoxy-β-D-glucopyranoside], the “% inhibition over control TLR4” value at TLR4 (Concentration 1-10 µM) is on record as “+++ (+++ means that the % of inhibition or activation is in the range of 75-95%)”. Besides, on TLR4 (Concentration 75-100 µM), the “% activation over control TLR4” value is on record as “++ (++ means that the % of inhibition or activation is in the range of 25-75%)”. For the same compound, at TLR4 (summary in words), the TLR4 modulatory activity entry is “concentration dependent TLR4 modulatory activity” and the TLR2/4 antagonist activity result was “potent TLR2/4 antagonists”.
Regarding `CC(=O)N[C@H]1[C@H](Oc2ccc([N+](=O)[O-])cc2Cl)O[C@H](CO)[C@@H](O)[C@@H]1O` [Compound 11], the “% inhibition over control TLR4” value at TLR4 (Concentration 1-10 µM) and at TLR4 (Concentration 75-100 µM) was “+ (+ means that the % of inhibition or activation is in the range of 15-25%)” each time.
On to `CC(=O)NC1[C@H](Oc2ccc(N3CCN(C(C)=O)CC3)cc2)O[C@H](CO)[C@@H](O)[C@@H]1O` (single isomer, unassigned) [Compound 28], for which the “% inhibition over control TLR4” value at TLR4 (Concentration 1-10 µM) is on record as “+ (+ means that the % of inhibition or activation is in the range of 15-25%)”. For the same compound, the “% activation over control TLR4” value at TLR4 (Concentration 75-100 µM) is listed as “++ (++ means that the % of inhibition or activation is in the range of 25-75%)”.
As to `CC(=O)N[C@H]1[C@H](Oc2ccc(NC(=O)c3ccc(O[C@@H]4O[C@H](CO)[C@@H](O)[C@H](O)[C@H]4NC(C)=O)cc3)cc2)O[C@H](CO)[C@@H](O)[C@@H]1O` [Compound 7], the “% inhibition over control TLR2” value at TLR2 (Concentration 1-10 µM) was “++ (++ means that the % of inhibition or activation is in the range of 25-75%)”; on TLR2 (Concentration 75-100 µM), “+++ (+++ means that the % of inhibition or activation is in the range of 75-95%)”. Moreover, in the series on hPBMC, the “cytotoxicity in hPBMC (cell viability)” value was “not toxic”. Also, the “cytotoxicity in HUVECs (cell viability)” value in the series with HUVECs is reported as “not toxic”. Besides, in series [2], the “VEGF induced tube formation” value was “significantly decreased”. In addition, the “% inhibition over control TLR4” value on TLR4 (Concentration 1-10 µM) and on TLR4 (Concentration 75-100 µM) was “+++ (+++ means that the % of inhibition or activation is in the range of 75-95%)” each time. In addition, on TLR4 (summary in words), the TLR2/4 antagonist activity entry is “potent TLR2/4 antagonists”.
For `CC(=O)NC1[C@H](Oc2cccc3sc(NC(=O)C(C)(C)C)nc23)O[C@H](CO)[C@@H](O)[C@@H]1O` (single isomer, unassigned) [Compound 23], in series [1], the IL-1β response entry is “increased”, the TNF-α response result is recorded as “increased” and the “anti-inflammatory cytokine IL-10” value was “decreased”. Further, the “% inhibition over control TLR4” value on TLR4 (Concentration 1-10 µM) is “+ (+ means that the % of inhibition or activation is in the range of 15-25%)”. In addition, the “% inhibition over control TLR4” value on TLR4 (Concentration 75-100 µM) is on record as “+ (+ means that the % of inhibition or activation is in the range of 15-25%)”.
Turning to `CC(=O)N[C@H]1[C@H](Oc2ccc3c(C)cc(=O)oc3c2)O[C@H](COS(=O)(=O)O)[C@@H](O)[C@@H]1O` [Compound 30], at TLR4 (Concentration 1-10 µM), the “% activation over control TLR4” value is reported as “+ (+ means that the % of inhibition or activation is in the range of 15-25%)” and the “% inhibition over control TLR4” value is “+ (+ means that the % of inhibition or activation is in the range of 15-25%)”. On TLR4 (Concentration 75-100 µM), the “% activation over control TLR4” value is “+ (+ means that the % of inhibition or activation is in the range of 15-25%)”.
On to `CC(=O)N[C@H]1[C@H](Oc2ccc(C(=O)Nc3ccc(O[C@@H]4O[C@H](COC(C)=O)[C@@H](OC(C)=O)[C@H](OC(C)=O)[C@H]4NC(C)=O)cc3)cc2)O[C@H](CO)[C@@H](O)[C@@H]1O` [Compound 6], for which the “cytotoxicity in HUVECs (cell viability)” value in the series on HUVECs was “not toxic”. Further, the “VEGF induced tube formation” value in series [2] is on record as “significantly decreased”. Further, the “% inhibition over control TLR4” value at TLR4 (Concentration 1-10 µM) is “++ (++ means that the % of inhibition or activation is in the range of 25-75%)”; on TLR4 (Concentration 75-100 µM), “+++ (+++ means that the % of inhibition or activation is in the range of 75-95%)”. Moreover, the TLR2/4 antagonist activity entry at TLR4 (summary in words) is “potent TLR2/4 antagonists”.
As to `CC(=O)N[C@@H]1[C@@H](O)[C@H](O)[C@@H](CO)O[C@H]1NC(=O)c1ccc(O[C@@H]2O[C@H](CO)[C@@H](O)[C@H](O)[C@H]2NC(C)=O)cc1` [Compound 3], the “% inhibition over control TLR2” value on TLR2 (Concentration 1-10 µM) was “++ (++ means that the % of inhibition or activation is in the range of 25-75%)”; on TLR2 (Concentration 75-100 µM), “+++ (+++ means that the % of inhibition or activation is in the range of 75-95%)”. Besides, in series [3] (neonatal pups with BPD), the “TLR4 inhibition in vivo” value is recorded as “inhibit”. Further, the lung architecture result in series [3] (saline (IV) and nanosuspension (IN) formulation) is given as “restored”. Further, the entries for the “% inhibition over control TLR4” value at TLR4 (Concentration 1-10 µM) and at TLR4 (Concentration 75-100 µM) were “++ (++ means that the % of inhibition or activation is in the range of 25-75%)” and “+++ (+++ means that the % of inhibition or activation is in the range of 75-95%)”, respectively. At TLR4 (summary in words), the TLR2/4 antagonist activity entry is “potent TLR2/4 antagonists”.
For `COc1ccc(O[C@@H]2O[C@H](CO)[C@@H](O)[C@H](O)[C@H]2NC(C)=O)cc1` [Compound 38], the “% inhibition over control TLR2” value on TLR2 (Concentration 75-100 µM) is reported as “++ (++ means that the % of inhibition or activation is in the range of 25-75%)”.
As to `CC(=O)N[C@@H]1[C@@H](OC(C)=O)[C@H](OC(C)=O)[C@@H](COC(C)=O)O[C@H]1NC(=O)c1ccc(O[C@@H]2O[C@H](CO)[C@@H](O)[C@H](O)[C@H]2NC(C)=O)cc1` [Compound 2], the “% inhibition over control TLR2” value at TLR2 (Concentration 1-10 µM) is listed as “+ (+ means that the % of inhibition or activation is in the range of 15-25%)”; at TLR2 (Concentration 75-100 µM), “+++ (+++ means that the % of inhibition or activation is in the range of 75-95%)”. The “cytotoxicity in hPBMC (cell viability)” value with hPBMC is “not toxic”. Also, the “cytotoxicity in HUVECs (cell viability)” value with HUVECs is on record as “not toxic”. Moreover, the “VEGF induced tube formation” value in series [2] is reported as “significantly decreased”. In addition, the “% inhibition over control TLR4” value at TLR4 (Concentration 1-10 µM) is given as “++ (++ means that the % of inhibition or activation is in the range of 25-75%)”; at TLR4 (Concentration 75-100 µM), “+++ (+++ means that the % of inhibition or activation is in the range of 75-95%)”. Further, the TLR2/4 antagonist activity entry at TLR4 (summary in words) is recorded as “potent TLR2/4 antagonists”.
